{"source": "patent US10485881B2", "about": "“Nanoparticle drug conjugates” (Memorial Sloan Kettering Cancer Center, priority 2014, dated 2019)", "key": {"[1]": {"molecular_target": "EGFR (phospho-Tyr168) in H1650 cells (Homo sapiens, UniProt P00533, DEL746-750)", "assay": "PhosphoEGFR assay with H1650 cells (western blot)", "details": "1 and 10 μM, compared with gefitinib", "method": "Serum starved cells were incubated with each compound over a period of 18 hours, then subject to EGF stimulation.\nPhosphoEGFR Assay with H1650 Cells:\nH1650 cells were seeded (1.5 million cells) in 6-well plates with 2 ml of 10% FBS DEM medium and grown for 24 hrs. Cells were washed with 1 mL of serum free DEM medium, then incubated with gefitinib or NDCs at indicated concentrations overnight (18 hrs). Cells were then treated with 50 ng/mL EGF for 5 minutes, then washed with 1 mL of PBS. […] 1 mL of 10% FBS DEM medium was added to wells, and cells were transferred to 15 mL conical tubes containing 10 mL of 10% FBS DEM medium. Cells were spun down at 3000 rpm for 5 minutes at 4° C. The cell pellets were washed with 1 mL cold PBS, transferred to 1.5 mL tubes, and spun down. PBS was decanted and 70 μL of RIPA (containing protease and phosphatase inhibitors) was added to the pellet, titurated, and incubated for 10 minutes on ice. Tubes were spun at maximum speed for 10 minutes at 4° C. Lysate was transferred to new 1.5 ml tubes and stored at −80° C. Protein concentrations were determined by the Bradford assay. Western blots were run on a Life Technologies apparatus, using Novex 8% tris-glycine gels (1.5 mm×15 wells), tris-glycine SDS running buffer, NuPAGE transfer buffer, 0.1% Tween-20 in 1×TBS washing buffer, and 5% milk in the washing buffer as the blocking buffer. […]"}, "[2]": {"molecular_target": "cathepsin B (Homo sapiens, UniProt P07858)", "assay": "Drug release assay with cathepsin B", "assay_type": "biochemical", "details": "free linker-drug constructs; for half-life at 25 μM: HPLC at 348 nm, sodium acetate buffer pH 5.0, NH = no hydrolysis, read-out: Cathepsin B t1/2 (time when 50% of the drug is released from linker); for Hydrolysis / drug release in the presence of cathepsin B: monitored by HPLC or LCMS", "procedure": "Drug Release Assays with Cathepsin B:\nFor analysis, 70 μL portions were removed and quenched with acid (HCl) at specified time points (e.g., 5, 15, 30, 60, 120 minutes or longer) then run on HPLC/LCMS. NDCs were stored in water at 4° C. […] Enzyme activity was tested prior to drug release assay using the substrate Z-Arg-Arg-para-nitro-aniline. The % Free Drug (FIGS. 4A, 4B, 6A and 6B) is the quantity of free drug divided by the initial quantity of drug loaded for the linker-drug construct or NDC, as described in the previous paragraph. All buffers and solutions were prepared using ultra-pure water (18 MΩ-cm resistivity)."}, "[3]": {"molecular_target": "T1, trypsin (Bos taurus, UniProt P00760)", "T1 construct": "purchased Sigma-Aldrich", "T1 sequence (P00760 24-246)": "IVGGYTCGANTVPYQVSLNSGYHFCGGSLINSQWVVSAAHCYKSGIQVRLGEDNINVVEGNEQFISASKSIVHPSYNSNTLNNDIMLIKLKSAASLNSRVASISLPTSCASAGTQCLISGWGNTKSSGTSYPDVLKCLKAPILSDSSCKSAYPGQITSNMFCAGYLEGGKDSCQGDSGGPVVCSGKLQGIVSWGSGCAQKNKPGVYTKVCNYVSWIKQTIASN", "assay": "Drug release assay with trypsin", "assay_type": "biochemical, bovine", "details": "for half-life at 25 μM: bovine, pH 7.2, free linker-drug constructs, HPLC at 348 nm, 37° C., phosphate buffer pH 7.2, read-out: Trypsin t1/2 (time when 50% of the drug is released from linker); for Time to complete hydrolysis / complete release of drug with trypsin: free linker-drug constructs, monitored by HPLC or LCMS", "procedure": "Drug Release Assays with Trypsin:\nFor analysis, 70 μL portions were removed and quenched with acid (HCl) at specified time points (e.g., 5, 15, 30, 60, 120 minutes or longer) then run on HPLC/LCMS. NDCs were stored in water at 4° C. Trypsin stocks were prepared as follows: 1 mg of trypsin was dissolved in 1 mL water, aliquoted, then immediately flash frozen and stored at −80° C. for up to four weeks. Enzyme activity was tested prior to drug release assay using the substrate Z-Arg-Arg-para-nitro-aniline. The % Free Drug (FIGS. 3 and S3) is the quantity of free drug divided by the initial quantity of drug loaded for the linker-drug construct or NDC. The quantity of free drug is determined by area of the HPLC peak corresponding to the released drug at 348 nm. The quantity of drug loaded is the area of the HPLC peak, at 348 nm, for the linker-drug construct or NDC prior to enzyme treatment. As the C'dot-(Cy5)-PEG-mal has background absorbance at 348 nm, a background subtraction for the NDC is necessary. All buffers and solutions were prepared using ultra-pure water (18 Me-cm resistivity)."}}, "note": "“Also recorded” adds a separate entry of the source. Read-outs that look alike come from different tables or passages of the source."}
{"compound": "Amino-dPEG2-aminopropyl-dMG [dPEG2APdMG 2]", "values": [{"measurement": "Inhibition of phospho-Tyr168 in EGFR", "setting": "[1]", "value": "reduced activity"}]}
{"compound": "COc1cc2ncnc(Nc3ccc(F)c(Cl)c3)c2cc1OCCCNC(=O)CCOCCOCCNC(=O)[C@H](CCCNC(=N)N)NC(=O)[C@H](Cc1ccccc1)NC(=O)CCOCCOCCNC(=O)CCOCCOCCNC(=O)CCOCCOCCNC(=O)CS", "note": "[Phe-Arg-dPEG2APdMG (4), Mercaptoacetamido-(dPEG2)3-Phe-Arg-dPEG2APdMG]", "values": [{"measurement": "half-life at 25 μM", "setting": "[2]", "value": 110, "unit": "min"}, {"measurement": "Hydrolysis / drug release in the presence of cathepsin B", "setting": "[2]", "value": "completely hydrolyzed"}, {"measurement": "half-life at 25 μM", "setting": "[3]", "value": "≤ 2", "unit": "min"}, {"measurement": "Time to complete hydrolysis / complete release of drug with trypsin", "setting": "[3]", "value": 10, "unit": "min"}]}
{"compound": "COc1cc2ncnc(Nc3ccc(F)c(Cl)c3)c2cc1OCCCNC(=O)OCc1ccc(NC(=O)[C@H](CCCCN)NC(=O)[C@H](Cc2ccccc2)NC(=O)CCOCCOCCOCCOCCOCCOCCOCCOCCS)cc1", "note": "[Phe-Lys-PABC-APdMG (5), HS-dPEG8-Phe-Lys-PABC-aminopropyl-dMG]", "values": [{"measurement": "half-life at 25 μM", "setting": "[2]; cathepsin B (isolated enzyme)", "value": "< 1", "unit": "min"}, {"measurement": "half-life at 25 μM", "setting": "[3]", "value": "< 1", "unit": "min"}, {"measurement": "Time to complete hydrolysis / complete release of drug with trypsin", "setting": "[3]", "value": 10, "unit": "min"}]}
{"compound": "COc1cc2ncnc(Nc3ccc(F)c(Cl)c3)c2cc1OCCCNC(=O)[C@H](CCCNC(=N)N)NC(=O)[C@H](Cc1ccccc1)NC(=O)CCOCCOCCNC(=O)CCOCCOCCNC(=O)CCOCCOCCNC(=O)CS", "note": "[Phe-Arg-APdMG (3), Mercaptoacetamido-(dPEG2)3-Phe-Arg-APdMG]", "values": [{"measurement": "Hydrolysis / drug release in the presence of cathepsin B", "setting": "[2]", "value": "no hydrolysis was observed; also recorded: no drug release was observed"}, {"measurement": "half-life at 25 μM", "setting": "[3]", "value": 9, "unit": "min"}, {"measurement": "Time to complete hydrolysis / complete release of drug with trypsin", "setting": "[3]", "value": "≤ 60", "unit": "min"}]}
